Values quoted from earlier work, collected in patent US20230285483A1, “TINCTURE CONTAINING CANNABINOIDS, METHOD OF USING, AND METHOD OF MAKING THE SAME” (priority 2022, published 2023).

Experiments:
[1] = molecular target: spike proteins found on the virus (Severe acute respiratory syndrome coronavirus 2, UniProt P0DTC2); conditions: study by researchers at Oregon State University
coronavirus = conditions: study by researchers at Oregon State University

| Structure (SMILES) | binding to spike proteins found on the virus [1] | blocking of a step the pathogen uses to infect people (coronavirus) |
| --- | --- | --- |
| C=C(C)[C@@H]1CCC(C)=C[C@H]1c1c(O)cc(CCCCC)c(C(=O)O)c1O [CBDa, cannabidiolic acid] | bind to spike proteins | blocked a step the pathogen uses to infect people |
| CCCCCc1cc(O)c(C/C=C(\C)CCC=C(C)C)c(O)c1C(=O)O [CBGa, cannabigerolic acid] | bind to spike proteins | blocked a step the pathogen uses to infect people |
